Active and inactive are the calls of the source. For most assays here, no stated cut-off is given here; in the data, actives have a measured EC50 and inactives only a lower limit.
Experiments:
[1] = system: Streptococcus sp. 'group A'; experiment: Streptococcus pyogenes SK(-)GAS viability under kanamycin – luminescence, BacTiterGlo, confirmation, counter-screen for streptokinase expression inhibitor project, dose response (AID 1900); assay type: functional, organism-based
Streptokinase A = target: T1, Streptokinase A (Streptococcus pyogenes serotype M1, UniProt P10520); experiment: viability-normalized secreted streptokinase activity reduction – plasminogen activation absorbance, OD405, dose response (AID 1914); assay type: functional, Streptococcus pyogenes M1 GAS;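 further: secreted streptokinase activity via plasminogen activation per viability signal from cell pellet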
T1 sequence (P10520 whole entry): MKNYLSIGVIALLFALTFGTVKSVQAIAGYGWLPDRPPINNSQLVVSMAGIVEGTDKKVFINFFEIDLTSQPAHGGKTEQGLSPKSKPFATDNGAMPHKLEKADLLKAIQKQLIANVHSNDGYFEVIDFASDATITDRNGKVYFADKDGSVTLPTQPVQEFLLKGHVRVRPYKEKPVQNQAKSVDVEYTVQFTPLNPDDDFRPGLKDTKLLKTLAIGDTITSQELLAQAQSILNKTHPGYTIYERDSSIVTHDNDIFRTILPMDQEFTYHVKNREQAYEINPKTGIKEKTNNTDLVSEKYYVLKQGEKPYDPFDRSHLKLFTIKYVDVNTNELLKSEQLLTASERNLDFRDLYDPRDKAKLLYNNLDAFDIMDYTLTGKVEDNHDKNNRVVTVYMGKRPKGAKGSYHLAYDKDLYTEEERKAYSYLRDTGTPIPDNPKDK

Streptococcus = experiment: GAS UMAA2166 growth inhibition – luminescence, BacTiterGlo, counter-screen for streptokinase expression inhibitor project, dose response (AID 1915); assay type: functional, organism-based;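 further: potency for reduction of bacterial viability or growth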
H9c2 = experiment: cells; assay type: functional, cell-based; conditions: Rattus norvegicus, H9c2, Myocardium;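 further: confirmatory concentration-response retest of ultra-high-throughput screening hits for modulation of myocardial damage; cell death induced by hydrogen peroxide oxidative stress; compound pretreatment for 60 min then peroxide exposure for 2 h; potency is for protecting the cells against peroxide damage rather than for killing them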
[2] = target: T2, Corticotropin-releasing factor receptor 2/Corticotropin-releasing factor-binding protein (Homo sapiens, UniProt P24387+Q13324); experiment: activators of CRF receptor 2 with binding protein – uHTS hits, confirmation (AID 602473); assay type: functional; conditions: read-out: EC50_Mean
T2 sequence (Q13324 whole entry): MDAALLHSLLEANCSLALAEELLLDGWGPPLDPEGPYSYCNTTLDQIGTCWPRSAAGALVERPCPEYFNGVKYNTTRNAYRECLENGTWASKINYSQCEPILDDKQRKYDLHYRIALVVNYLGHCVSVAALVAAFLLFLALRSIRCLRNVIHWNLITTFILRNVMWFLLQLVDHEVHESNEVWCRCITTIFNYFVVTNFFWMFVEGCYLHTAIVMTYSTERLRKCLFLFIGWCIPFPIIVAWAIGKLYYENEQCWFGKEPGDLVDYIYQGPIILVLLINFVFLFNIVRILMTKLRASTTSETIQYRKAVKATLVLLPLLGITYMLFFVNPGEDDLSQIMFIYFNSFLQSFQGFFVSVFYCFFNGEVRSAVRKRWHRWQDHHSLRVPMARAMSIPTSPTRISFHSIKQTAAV
T2 sequence (P24387 whole entry): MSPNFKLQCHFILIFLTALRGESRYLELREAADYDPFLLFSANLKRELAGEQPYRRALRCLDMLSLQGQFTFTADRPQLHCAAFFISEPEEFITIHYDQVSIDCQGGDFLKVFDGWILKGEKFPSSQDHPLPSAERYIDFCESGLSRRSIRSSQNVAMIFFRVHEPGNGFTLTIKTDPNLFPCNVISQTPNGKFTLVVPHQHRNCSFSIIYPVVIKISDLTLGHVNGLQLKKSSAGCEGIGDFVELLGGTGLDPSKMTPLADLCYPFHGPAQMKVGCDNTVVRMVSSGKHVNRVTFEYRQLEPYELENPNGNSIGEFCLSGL

[3] = target: T2, Corticotropin-releasing factor receptor 2/Corticotropin-releasing factor-binding protein; experiment: Dose Response confirmation of uHTS hits for small molecule antagonists of the CRF-binding protein and CRF-R2 receptor complex.; assay type: functional; conditions: read-out: IC50_Mean
H4 = experiment: Luminescence Cell-Based Dose Response HTS to Identify Activators of 5'UTR Stem-Loop Driven Prion Protein mRNA Translation in H4 Neuroglioblastoma Cells. [Related pubchem assays: 1829 (Project Summary), 1814 (Primary HTS)]; assay type: functional; conditions: Homo sapiens
[4] = Luminescence Cell-Based Dose Response HTS to Identify Activators of Luciferase Translation or Activity in H4 […] Cells. [Related pubchem assays: 1829 (Project Summary), 1814 (Primary HTS)]; assay type: functional
[5] = NIH-3T3 fibroblast cytotoxicity, dose response, cytotoxicity control, cell-based, fluorescence, Alamar Blue, secondary assay (AID 2327); assay type: functional;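 further: NIH-3T3 mouse fibroblasts cultured with fluconazole at 8 µg/mL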
[6] = fluconazole-exposed Candida albicans growth modulators – fluorescence, retest, confirmation (AID 2467); assay type: functional, cell-based
[7] = target: T3, RNA-binding protein pos-1 (Caenorhabditis elegans, UniProt G5EF15); experiment: disruptors of C. elegans POS-1 RNA interaction – biochemical, fluorescence polarization, dose response (AID 1964);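 further: purified POS-1 fused to maltose binding protein made in E. coli; potency of compounds blocking POS-1 binding to fluorescent RNA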
T3 sequence (G5EF15 whole entry): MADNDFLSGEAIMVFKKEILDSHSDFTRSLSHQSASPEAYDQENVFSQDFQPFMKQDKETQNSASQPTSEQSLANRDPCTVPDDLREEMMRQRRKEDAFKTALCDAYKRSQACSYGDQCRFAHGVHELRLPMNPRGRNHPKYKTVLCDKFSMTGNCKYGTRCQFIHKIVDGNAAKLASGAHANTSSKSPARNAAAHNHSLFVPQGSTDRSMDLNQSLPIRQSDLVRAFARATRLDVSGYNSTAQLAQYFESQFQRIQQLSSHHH

[8] = target: T4, Zinc finger protein mex-5 (Caenorhabditis elegans, UniProt Q9XUB2); experiment: potency of MEX-5 RNA-binding blockers – biochemical, C. elegans, fluorescence polarization, dose response (AID 1960)
T4 sequence (Q9XUB2 whole entry): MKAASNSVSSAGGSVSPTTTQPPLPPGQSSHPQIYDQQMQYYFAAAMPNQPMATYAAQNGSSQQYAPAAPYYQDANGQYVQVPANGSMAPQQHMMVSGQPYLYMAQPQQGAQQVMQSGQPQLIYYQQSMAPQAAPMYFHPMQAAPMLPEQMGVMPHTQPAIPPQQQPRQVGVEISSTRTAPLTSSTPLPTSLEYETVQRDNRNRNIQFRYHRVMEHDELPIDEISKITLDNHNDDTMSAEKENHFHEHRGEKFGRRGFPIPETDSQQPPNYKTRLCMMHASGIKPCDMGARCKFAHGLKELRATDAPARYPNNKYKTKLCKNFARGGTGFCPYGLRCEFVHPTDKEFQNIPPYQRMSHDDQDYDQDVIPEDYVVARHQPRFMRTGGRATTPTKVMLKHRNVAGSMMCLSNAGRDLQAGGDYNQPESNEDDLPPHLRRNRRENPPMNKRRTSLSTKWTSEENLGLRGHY

With `COc1cc(/C=C2\SC(Nc3cccnc3)=NC2=O)cc(OC)c1OC` the EC50 [1] was 36.8 µM (active), the EC50 (Streptokinase A) was > 150 µM (not active) and the EC50 (Streptococcus) was 68.5 µM (active).
For `Cc1nn(C)cc1C(C(=O)NC1CCCCC1)N(C(=O)Cc1cccs1)c1ccc(Cl)cc1` (configuration not stated), the IC50 (H9c2) was 15.2 µM (active) and the EC50 [2] was 12 µM (active).
With `COc1ccc2nc(O)c(CN(CC3CCCO3)S(=O)(=O)c3ccccc3F)cc2c1` (configuration not stated) the IC50 (H9c2) was 15.5 µM (active).
For `O=C(NCCN1CCOCC1)c1cnn2c(-c3ccccc3)cc(-c3ccccc3)nc12`, the IC50 (H9c2) was > 79 µM (inactive).
For `CSc1nc2cc(Cl)ccc2s1`, the IC50 [3] was > 47.1 µM (inactive) and the EC50 [2] was > 53 µM (inactive).
In the case of `CC1CCN(C(=O)C2CCN(S(=O)(=O)c3cccnc3)CC2)CC1`, the IC50 [3] was > 47.1 µM (inactive) and the EC50 [2] was > 53 µM (inactive).
With `Nc1nc(CN2CCC(Cc3ccccc3)CC2)nc(Nc2ccccc2)n1` the EC50 [1] was 14.8 µM (active), the EC50 (Streptokinase A) was > 150 µM (not active) and the EC50 (Streptococcus) was > 150 µM (not active).
In the case of `CCCC(=O)NCCc1ccc(F)cc1`, the EC50 [1] was > 150 µM (not active), the EC50 (Streptokinase A) was > 150 µM (not active) and the EC50 (Streptococcus) was > 150 µM (not active).
In the case of `C=C(C)CSc1nc2c(cc1C#N)CCC2`, the IC50 [3] was > 47.1 µM (inactive) and the EC50 [2] was > 53 µM (inactive).
With `O[C@@H]1CCCN2CCc3c([nH]c4ccccc34)[C@H]12` the EC50 [1] was > 150 µM (not active), the EC50 (Streptokinase A) was > 150 µM (not active) and the EC50 (Streptococcus) was > 150 µM (not active).
For `Cc1ccn(C(=O)c2ccc(NC(=O)C3CCCCC3)cc2)n1`, the IC50 [3] was > 47.1 µM (inactive) and the EC50 [2] was > 53 µM (inactive).
For `CC(C)C/C=C1\CCc2c([nH]c3ccccc23)C1=O`, the EC50 (H4) was 45.4 µM (active) and the EC50 [4] was 27.8 µM (active).
In the case of `O=C(COc1ccc(Cl)cc1Cl)Nc1ccccc1NS(=O)(=O)c1cccs1`, the IC50 [3] was > 47.1 µM (inactive) and the EC50 [2] was 33.1 µM (active).
For `COC(=O)c1ccc(NC(=O)COC(=O)CSc2nc(C)cc(C)n2)cc1`, the IC50 [3] was > 47.1 µM (inactive) and the EC50 [2] was > 53 µM (inactive).
In the case of `O=C(Nc1ccc(F)cc1)c1nc2c(nnn2Cc2cccc3ccccc23)c(=O)[nH]1`, the EC50 (Streptokinase A) was > 150 µM (not active).
With `CC(C)(C)NS(=O)(=O)c1ccc(NS(=O)(=O)Cc2ccccc2)cc1` the EC50 [1] was > 150 µM (not active), the EC50 (Streptokinase A) was > 150 µM (not active) and the EC50 (Streptococcus) was > 150 µM (not active).
For `COc1ccc(N/C=C(\C#N)c2nc3ccccc3n2C)c(OC)c1`, the IC50 (H9c2) was > 79 µM (inactive).
For `O=C(Nc1scc(-c2ccc(Br)cc2)c1C(=O)O)c1ccccc1F`, the EC50 [1] was 2.83 µM (active), the EC50 (Streptokinase A) was 9.9 µM (active) and the EC50 (Streptococcus) was 11 µM (active).
In the case of `Cc1ccc(C(C)C)cc1OCC(=O)Nc1ccccc1N1CCCC1`, the EC50 (Streptokinase A) was 14.1 µM (active) and the EC50 (Streptococcus) was > 150 µM (not active).
With `Cc1ccc(C(=O)Oc2ccc(Cl)c3cccnc23)cc1[N+](=O)[O-]` the IC50 (H9c2) was > 79 µM (inactive).
For `O=C(NNC(=O)c1cc2ccccc2cc1O)Nc1ccccc1F`, the EC50 [5] was > 160 µM (inactive) and the EC50 [6] was > 38 µM (not active).
With `COc1ccccc1Oc1c[nH]nc1-c1ccc(OCC(=O)NN)cc1O` the EC50 [1] was > 150 µM (not active), the EC50 [7] was > 300 µM (not active) and the EC50 (Streptokinase A) was > 150 µM (not active). For the same molecule, the EC50 (Streptococcus) was > 150 µM (not active) and the EC50 [8] was 120 µM (active).
With `CCCCNC(=O)c1cn(-c2ccc(OCC)cc2)c(=O)c2cc(OC)c(OC)cc12` the IC50 (H9c2) was 15.3 µM (active).
With `COc1ccc(C(C(=O)NC2CCCCC2)N(Cc2cccs2)C(=O)Cc2c[nH]c3ccccc23)cc1OC` (configuration not stated) the IC50 (H9c2) was > 79 µM (inactive), the IC50 [3] was > 47.1 µM (inactive) and the EC50 [2] was > 53 µM (inactive).
With `Cc1cccc(NC(=O)c2[nH]cnc2C(=O)NCCCCCCNC(=O)c2nc[nH]c2C(=O)Nc2cccc(C)c2)c1` the IC50 (H9c2) was 14.4 µM (active).
For `O=C(ONC1=NCCCCC1)c1cccc([N+](=O)[O-])c1`, the EC50 [5] was > 150 µM (inactive) and the EC50 [6] was 2.12 µM (active).
For `O=C(COC(=O)Cn1[nH]c(=O)c2ccccc2c1=O)Nc1ncc(Cl)cc1Cl`, the IC50 (H9c2) was > 79 µM (inactive).
With `CCn1c(SCC(=O)N2CCCCC2)nc2c(c1=O)SCC2` the IC50 [3] was > 47.1 µM (inactive) and the EC50 [2] was > 53 µM (inactive).
For `CCN(C[C@H]1N[C@@](Cc2ccccc2)(C(=O)OC)[C@H]2C(=O)N(C)C(=O)[C@@H]12)S(=O)(=O)c1ccc(OC)cc1`, the IC50 (H9c2) was 7.53 µM (active).
For `Cc1cc(NC(=O)CN2C(=O)NC(CC(C)C)C2=O)no1` (configuration not stated), the IC50 [3] was > 47.1 µM (inactive) and the EC50 [2] was > 53 µM (inactive).
For `CN(CC(=O)Nc1cccc(F)c1)C(=O)Cc1nnc(O)c2ccccc12`, the IC50 (H9c2) was 25.6 µM (active).
With `CC(C)c1ccc(/C=N/NC(=O)c2cc(-c3cccc([N+](=O)[O-])c3)[nH]n2)cc1` the IC50 [3] was > 47.1 µM (inactive) and the EC50 [2] was > 53 µM (inactive).
For `CCO/C(O)=C1\C(C)=NC(C)=C(C(=O)OCCNC(=O)c2cccnc2)C1c1cccc([N+](=O)[O-])c1` (configuration not stated), the IC50 (H9c2) was > 79 µM (inactive).
With `C=C(C)CNC(=S)N/N=C1\CCCCc2ccccc21` the EC50 [5] was 62.5 µM (active) and the EC50 [6] was 6.24 µM (active).
With `COCCn1c(-c2ccccc2)cs/c1=N\c1cccnc1` the IC50 [3] was 22.3 µM (active) and the EC50 [2] was > 53 µM (inactive).
For `Cc1ccsc1/C=N/NS(=O)(=O)c1ccc([N+](=O)[O-])cc1`, the EC50 [5] was > 150 µM (inactive) and the EC50 [6] was 1.81 µM (active).
For `CN(/C(=N/S(=O)(=O)c1cccs1)c1ccccc1)c1ccc(O)cc1`, the EC50 [5] was > 150 µM (inactive) and the EC50 [6] was > 38 µM (not active).
With `C[C@]12CC[C@H]3[C@@H](CC[C@H]4C[C@@H](O)CC[C@@]43C)[C@@H]1C[C@@H](O)C2` the IC50 (H9c2) was > 79 µM (inactive).
In the case of `Cc1c(C#N)c(N)nc2c3c(sc12)NC(=O)CC3c1ccccc1` (configuration not stated), the IC50 (H9c2) was 32.6 µM (inactive).
For `O=C1NCCN1CCNS(=O)(=O)c1cc(C(F)(F)F)cc(C(F)(F)F)c1`, the EC50 [5] was > 150 µM (inactive) and the EC50 [6] was > 38 µM (not active).

From ChEMBL document CHEMBL1201862, “PubChem BioAssay data set” (2004)
